Measurements reported in patent publication US20230151371A1, “POLYPEPTIDES HAVING EPOXY GROUP-REMOVING CATALYTIC ACTIVITY, NUCLEIC ACIDS ENCODING THE POLYPEPTIDES AND USE THEREOF” (priority 2020, published 2023).
Like-named read-outs stand apart in the source and are kept apart here.

Assays:
[1] = test system: pancreatic cancer cell line (PATU8988)
[2] = test system: human embryonic kidney cell 293-derived line (293T)
[3] = test system: normal human esophageal epithelial cells (HEECs)

Measured: cell viability (CCK-8, OD450)

3-acetyl-deoxynivalenol [3-ADON]
decreased sharply: [1]; PATU8988, 48 h treatment | [2]; 293T, 48 h treatment | [3]; HEEC, 48 h treatment

15-acetyl-deoxynivalenol [15-ADON]
decreased sharply: [1]; PATU8988, 48 h treatment | [2]; 293T, 48 h treatment | [3]; HEEC, 48 h treatment

HT-2 toxin
decreased sharply: [1] | [2] | [3]

deoxynivalenol [DON]
decreased sharply: [1]; PATU8988, 48 h treatment | [2]; 293T, 48 h treatment | [3]; HEEC, 48 h treatment

fusarenon-X [FUS-X]
decreased sharply: [1] | [2] | [3]; HEEC, 48 h treatment
